Reference: paper PMC6059979 (European journal of medicinal chemistry, 2018)
Peptide text beside a SMILES is read from it. * marks the point of attachment. Palmitoyl = CCCCCCCCCCCCCCCC(=O)*

What was measured:
Type in all cases: cell-based
[1] = tested on: Methicillin Resistant Staphylococcus aureus (MRSA, ATCC 33591); conditions: ATCC 33591, 18 h
[2] = tested on: Methicillin Resistant Staphylococcus epidermidis (MRSE, RP62A); conditions: Methicillin Resistant (, RP62A, 18 h)
[3] = tested on: Vancomycin Resistant Enterococcus faecalis (E. faecalis, ATCC 700802); conditions: ATCC 700802, 18 h
[4] = tested on: Escherichia coli (E. coli, JM109); conditions: JM109, 18 h
[5] = tested on: Klebsiella pneumoniae (K. pneumoniae, ATCC 13383); conditions: ATCC 13383, 18 h

MIC MRSA [1]: >25 µg/mL | MIC MRSE [2]: >25 µg/mL | MIC E. faecalis [3]: >25 µg/mL | MIC E. coli [4]: >25 µg/mL | MIC K. pneumoniae [5]: >25 µg/mL
SMILES: CCCCCCCCCCCCCCCC(=O)N[C@@H](CCCCN)C(=O)N[C@@H](Cc1ccccc1)C(=O)N[C@@H](CCCCN)C(N)=O [C16-K-F-K] (Palmitoyl-Lys-Phe-Lys-NH2)
